What is called viability is a read-out of living cells in per cent, often relative to untreated cells. A word on the IC50: it is the point on the concentration scale where inhibition reaches its midpoint.

Entries after “also recorded” stand apart in the source; their conditions may differ.

The values that follow come from publication PMC11134387, “Cancer-Stem-Cell Phenotype-Guided Discovery of a Microbiota-Inspired Synthetic Compound Targeting NPM1 for Leukemia” (JACS Au, 2024).

The nature of series [1]: In vivo pharmacokinetic study. Further details: species or system mouse. Conditions: single intraperitoneal administration, 25 mg/kg, up to 6 h. How it is done:
Based on the encouraging results obtained in ex vivo models of AML, we further assessed the therapeutic potential of the new NPM1 inhibitor in vivo. Prior to the evaluation of the compound in an animal model of AML, in vivo pharmacokinetic studies were addressed. Following a single intraperitoneal administration of UCM-13369 at a dose of 25 mg/kg, levels of 200–600 μg/L were detected in mouse peripheral blood up to 6 h (Figure 6A). Plasma protein binding of the compound in mouse serum was measured using an equilibrium dialysis assay, indicating a bound fraction of 83 ± 1%. Next, the efficacy of the compound was evaluated in immunodeficient mice after injection of OCI-AML3-ffLuc-GFP cells as an AML animal model.
For the pharmacokinetic study of UCM-13369, after injecting 25 mg/kg dose of the compound, samples of blood were withdrawn at different times (30, 60, 120, 240, 360 min), and the presence of tested compound was analyzed by HPLC-MS. The area of the molecular peak allowed us to calculate the concentration of the compound present in mice serum at each time.

A further series concerns MCF-7. The series can be described thus: Cytotoxic effect in breast tumor cell line (MTT). Conditions: Homo sapiens, MCF7, read-out: Viability (%) MCF-7, @5 µM (footnote d).
Another series has as its system MOLM13 (NPM1 WT). The series can be described thus: Cell viability dose-response in AML cell line (NPM1 WT). The class given is cell-based. Conditions: Homo sapiens, MOLM-13; MOLM13, 48 h. An excerpt: One of the most paradigmatic diseases with critical involvement of CSCs is AML. Among the AML stem cell population, CD34+/CD38- are the only ones capable of inducing leukemia in vivo.[27] […] We focused on proteins that disappeared completely after treatment with the compound and whose concentration could be quantified in untreated samples. According to this profile, 340 proteins, including targets related with stemness and cancer, were identified (see Supplementary Excel file). Among them, nucleophosmin 1 (NPM1) especially attracted our attention, as it is one of the most common mutated proteins in AML.[28] To support that the inhibitory capacity of UCM-13369 observed in CSC cells (see Table S1) is mediated by NPM1, the compound was tested on OCI-AML3 and MOLM13 cell lines, as in vitro AML models bearing mutant (NPM1 C+) and wild-type (WT) protein, respectively.
The test compound was diluted in PBS.

In another series the test system is c-Myc. Kind of series: qPCR and Western blot of c-Myc in OCI-AML3 cells. The class given is cell-based. An excerpt: We next studied the impact of UCM-13369 in the genes and/or expression levels of NPM1 and NPM1 C+ pathway components (Figure 4A), including the positive regulation of c-Myc[34] and the negative regulation of FBXW7 and the pro-apoptotic CASP8.[35] […] The inhibition of NPM1 was also observed in MOLM13 cells expressing WT NPM1 (Figure S1B). […]
quantitative real-time PCR (qPCR), or were sorted using a FACS BD INFL UX cell sorter (BD Biosciences, Franklin Lakes, NJ, USA). All cells were maintained at 37 °C in a humidified incubator in an atmosphere of 5% CO2, and passaged every 2–3 days. […]
Primary cells. […] After 72 h in maintenance cells were ready to start the assays. […]
Colonospheres, mamospheres and colony formation unit assays. […] After 10 days (mamospheres and colonospheres) and 14 days (CFU-E) we quantified t he number of colonies/spheres and number of cell s (CFU-E) by […]
RNA and DNA extraction and quantitative PCR (qPCR). […] Gene expression was studied from the extracted RNA, processed into cDNA to quantify the expression of NPM1 and c-MYC. […]
The relative amount of targets was determined by the comparative Ct method.
Western blot. […] Lysates wer e cl ear ed by centrifugation (14,000g, 4 °C, 30 min), protein concentration determined by Bradford […]
Proteomic analysis. […] Follows the image of a Venn diagram showing the number of proteins detected in each of the pop ulations and the proteins that converg e […]
Background: Quantitative PCR measures a nucleic acid by following its amplification.

For series [2], the system named is human renal proximal tubule epithelial cells (hRPT Epi Cells). The series can be described thus: Dose-response viability in renal proximal tubule epithelial cells. The settings on record: dose-response viability assay; listed as UCM-13369. In kind it is cell-based. An excerpt:
Scale bar: 100 μm. (E ) Dose-response curve of UCM-13369 in human renal proximal

Experimental for MCF-7: The cytotoxic effect was determined in breast (MCF-7) and colon (HCT-116) tumor cell lines using MTT assays.
Cells were seeded at 3 × 10^4 cells/mL in 96-well plates. The test compound was diluted in PBS. […] Viability was evaluated by MTT or WST-1 and dose/response curves were performed.

`COc1ccc(C2Cc3[nH]c4ccccc4c3C(CCNCC3CC3)C2N)cc1` (centres unmarked) [4b, 4-{2-[(Cyclopropylmethyl)amino]ethyl}-2-(4-methoxyphenyl)-2,3,4,9-tetrahydro-1H-carbazol-3-amine]: the “Levels in mouse peripheral blood” value in series [1] was in the range of 200 to 600 ng/mL. For the same compound, the viability at 5 µM with MCF-7 came to 96%. The compound also showed a half-inhibitory concentration (IC50) in the series with MOLM13 (NPM1 WT) of 10.9 µM. Also, the “c-Myc levels (in words)” value in the series on c-Myc is on record as “reduced levels”. Also, in series [2], the “Toxicity in hRPT Epi Cells (in words)” value is on record as “showed toxicity in kidney cells; also recorded: revealed toxicity”.
